Source: the supplement of paper PMC11061612

Legend:
Experiment in all cases: combination Emax (second highest fraction inhibited in the dose matrix, 72 h); higher = more inhibition; extreme values may be limits of the assay
[1] = test system: HT-1376 (Bladder Carcinoma)
Method in brief: (§1)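 After 24 hours at 37°C and 5% CO2 in 1536-well plates, cells in DMEM/F12 or RPMI plus 10% FBS received two-drug dose matrices for 72 hours. Viability came from CellTiter-Glo 2.0 luminescence and was scaled as inhibition, anchored at 0 by vehicle wells and at 1 by blank wells. Combination Emax is taken as the second-highest inhibition in the matrix, and Bliss excess as the observed combination effect less EA + EB − EA·EB, with EA and EB the single-agent effects.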

[2] = test system: CCRF-CEM (T-Lymphoblastic Leukemia)
Method in brief: as §1

T98G (Glioblastoma) = test system: T98G (Glioblastoma)
Method in brief: as §1

[3] = test system: Calu-3 (Lung Adenocarcinoma)
Method in brief: as §1

[4] = test system: HO-1-N-1 (Oral Cavity Carcinoma)
Method in brief: as §1

[5] = test system: NCI-H82 (Small Cell Lung Carcinoma)
Method in brief: as §1

[6] = test system: LS-180 (Colorectal Carcinoma)
Method in brief: as §1

[7] = test system: CaR-1 (Colorectal Carcinoma)
Method in brief: as §1

NB10 (Neuroblastoma) = test system: NB10 (Neuroblastoma)
Method in brief: as §1

[8] = test system: TE-9 (Esophageal Squamous Cell Carcinoma)
Method in brief: as §1

[9] = test system: Ramos-2G6-4C10 (Burkitt's Lymphoma)
Method in brief: as §1

[10] = test system: RO82-W-1 (Thyroid Gland Carcinoma)
Method in brief: as §1

[11] = test system: NCI-H2085 (Non-Small Cell Lung Carcinoma)
Method in brief: as §1

[12] = test system: TE-15 (Esophageal Squamous Cell Carcinoma)
Method in brief: as §1

[13] = test system: LB831-BLC (Bladder Carcinoma)
Method in brief: as §1

HOS (Osteosarcoma) = test system: HOS (Osteosarcoma)
Method in brief: as §1

[14] = test system: UM-UC-3 (Bladder Carcinoma)
Method in brief: as §1

KELLY (Neuroblastoma) = test system: KELLY (Neuroblastoma)
Method in brief: as §1

[15] = test system: HCC-78 (Lung Adenocarcinoma)
Method in brief: as §1

[16] = test system: KURAMOCHI (Ovarian Carcinoma)
Method in brief: as §1

Row | Compound | combination Emax [1] | combination Emax [2] | combination Emax (T98G (Glioblastoma)) | combination Emax [3] | combination Emax [4] | combination Emax [5] | combination Emax [6] | combination Emax [7] | combination Emax (NB10 (Neuroblastoma)) | combination Emax [8] | combination Emax [9] | combination Emax [10] | combination Emax [11] | combination Emax [12] | combination Emax [13] | combination Emax (HOS (Osteosarcoma)) | combination Emax [14] | combination Emax (KELLY (Neuroblastoma)) | combination Emax [15] | combination Emax [16]
1 | C[C@@H](Oc1cc(-c2cnn(C3CCNCC3)c2)cnc1N)c1c(Cl)ccc(F)c1Cl [Crizotinib] + CC1=C(C(=CC=C1)Cl)NC(=O)C2=CN=C(S2)NC3=CC(=NC(=N3)C)N4CCN(CC4)CCO [Dasatinib] (first compound max 10 µM, 7x7, partner max 2 µM) | 0.418 | 0.911 | 0.971 | 0.767 | 0.972 | 0.875 | 0.585 | 0.943 | 0.792 | 0.691 | 0.586 | 0.618 | 1 | 0.79 | 0.921 | 0.756 | 0.716 | 0.991 | 0.754 | 0.909
2 | C[C@@H](Oc1cc(-c2cnn(C3CCNCC3)c2)cnc1N)c1c(Cl)ccc(F)c1Cl [Crizotinib] + Cn1cnc2c(F)c(Nc3ccc(Br)cc3Cl)c(C(=O)NOCCO)cc21 [Selumetinib] (first compound max 10 µM, 7x7, partner max 10 µM) | 0.0756 | 0.854 | 0.427 | 0.172 | 0.769 | 0.787 | 0.717 | 0.491 | 0.872 | 0.167 | 0.4 | 0.197 | 0.545 | 0.406 | 0.55 | 0.457 | 0.346 | 0.98 | 0.637 | 0.508
3 | CS(=O)(=O)CCNCc1ccc(-c2ccc3ncnc(Nc4ccc(OCc5cccc(F)c5)c(Cl)c4)c3c2)o1 [Lapatinib] + Cn1cnc2c(F)c(Nc3ccc(Br)cc3Cl)c(C(=O)NOCCO)cc21 [Selumetinib] (first compound max 10 µM, 7x7, partner max 10 µM) | 0.287 | 0.46 | 0.25 | 0.933 | 0.956 | 0.416 | 0.758 | 0.426 | 0.481 | 0.149 | 0.347 | 0.193 | 0.341 | 0.775 | 0.379 | 0.332 | 0.306 | 0.936 | 0.228 | 0.58
4 | O=C(c1cc(Cc2n[nH]c(=O)c3ccccc23)ccc1F)N1CCN(C(=O)C2CC2)CC1 [Olaparib] + CC1(C)CCC(CN2CCN(c3ccc(C(=O)NS(=O)(=O)c4ccc(NCC5CCOCC5)c([N+](=O)[O-])c4)c(Oc4cnc5[nH]ccc5c4)c3)CC2)=C(c2ccc(Cl)cc2)C1 [Venetoclax] (first compound max 10 µM, 7x7, partner max 1 µM) | 0.0615 | 0.209 | 0.123 | 0.102 | 0.221 | 0.395 | 0.203 | 0.0709 | 0.348 | 0.171 | 0.126 | 0.129 | 0.0675 | 0.251 | 0.247 | 0.22 | 0.0664 | 0.632 | 0.0996 | 0.137
5 | O=C(c1cc(Cc2n[nH]c(=O)c3ccccc23)ccc1F)N1CCN(C(=O)C2CC2)CC1 [Olaparib] + CN(CC[C@H](CSC1=CC=CC=C1)NC2=C(C=C(C=C2)S(=O)(=O)NC(=O)C3=CC=C(C=C3)N4CCC(CC4)[C@H](C5=CC=CC=C5C6=CC=C(C=C6)Cl)O)S(=O)(=O)C(F)(F)F)CCO [AZD4320] (first compound max 10 µM, 7x7, partner max 1 µM) | 0.215 | 0.986 | 0.251 | 0.257 | 0.352 | 0.382 | 0.227 | 0.136 | 0.389 | 0.321 | 0.404 | 0.546 | 0.289 | 0.22 | 0.409 | 0.277 | 0.188 | 0.831 | 0.241 | 0.379
6 | O=C(c1cc(Cc2n[nH]c(=O)c3ccccc23)ccc1F)N1CCN(C(=O)C2CC2)CC1 [Olaparib] + COc1nnc2ccc(N3CCC(c4ccc(OCCN5CCN(C)C(=O)[C@H]5C)cc4)CC3)nn12 [AZD5153] (first compound max 10 µM, 7x7, partner max 1 µM) | 0.0928 | 0.714 | 0.408 | 0.516 | 0.604 | 0.535 | 0.581 | 0.277 | 0.406 | 0.189 | 0.611 | 0.274 | 0.383 | 0.516 | 0.465 | 0.402 | 0.359 | 0.397 | 0.325 | 0.772
